Experimental data: publication PMC12455397 (Angewandte Chemie (International Ed. in English), 2025)

Columns and labels:
[1] = tested on: Nrf2-regulated genes (AKR1B10, NQO1, TRXR1, HO-1) in HaCaT human keratinocytes; test: HaCaT cell assay, RT-qPCR of Nrf2-regulated genes; format: cell-based; details: WT HaCaT, 3, 1 and 0.33 µM, 5 h, normalized to TBP
[2] = tested on: NLRP3 inflammasome in macrophage-derived THP-1 cells; test: NLRP3 inflammasome / TLR4 activation in THP-1 macrophages (WB, ELISA); format: cell-based; details: 100 µM, 24 h
[3] = tested on: NQO1 mRNA in BEAS-2B cells; test: qPCR-based BEAS-2B cell assay (NQO1 mRNA); set-up: species or system human; details: mean ± SEM, 2-4 independent experiments
Method: RT-qPCR were stimulated with compounds or DMSO diluted in DMEM and incubated for 24 h. DMSO was added accordingly to highest percentage compound volume added.
Upon 24 hour compound stimulation, the cells were trypsinized, washed, spun down and resuspended in 70 μL of ice-cold Pierce RIPA lysis buffer (Thermo Scientific) supplemented with 10 mM NaF, 1× complete protease cocktail inhibitor (Roche), and 5 IU mL-1 benzonase (Sigma), respectively. The protein concentrations were determined using the BCA protein assay kit (Thermo Scientific) and samples was equalized accordingly to the sample of lowest protein concentration. 1×XT sample buffer (Bio-Rad) and 1×XT reducing agent (Bio-Rad) were added to the samples, and lysates were denatured by boiling for 5 min at 95 °C. Denatured samples was separated by SDS-PAGE on a 4–20% Criterion TGX precast gradient gel (Bio-Rad). The gel ran initially for 20 min at 70 V and 45 min at 120 V and was then transferred onto a PVDF membrane (Bio-Rad) using a Trans-Blot Turbo transfer system. […]
Upon 5 hour compound stimulation, RNA was extracted from the cells using the High Pure RNA Isolation Kit (Roche, 11828665001) according to the manufacturer’s instructions. […] The quality and purity of the RNAs were assessed by Nanodrop spectrometry (DeNovix DS-11). Using the TaqMan detection systems, the gene expression of HO-1 (HMOX-1), NQO1, AKR1B10, and TRXR1 was determined by real-time PCR. […] The commercially available TaqMan assay (Thermo Fischer Scientific, cat. no. 4392938) was used, and samples were analyzed in a final volume of 10 μL reaction mix containing 5 μL of master mix, 0.2 μL of RT enzyme, 2.3 μL of nuclease-free water, […] (TATA-Box Binding Protein/TBP; […]
Hs00917067_m1, Thermo Fisher), and 2 μL of pure RNA. The samples were analyzed using a QuantStudioTM 3 real-time PCR instrument with the following program: 1 × (10 min, 48.0 °C; 10 min, 95.0 °C); 40 × (30 s, 95.0 °C; 1 min, 60.0 °C). […]
The upregulation of NQO1 mRNA in BEAS-2B cells was measured by qPCR, as previously described.[20] […]

[4] = tested on: Nrf2 KO THP1 cells differentiated into macrophages; test: RNA sequencing transcriptome analysis, Nrf2 KO THP-1 macrophages; format: cell-based; details: 12 h, CDDO-Me 0.1 µM, DMF, 24, 28 10 µM, KI-696 1 µM
[5] = biological target: human Keap1 Kelch (Homo sapiens, UniProt Q14145); test: Fluorescence polarization (FP) competition assay with Cy5-Nrf2 peptide probe
Chain of human Keap1 Kelch (Q14145 321-609): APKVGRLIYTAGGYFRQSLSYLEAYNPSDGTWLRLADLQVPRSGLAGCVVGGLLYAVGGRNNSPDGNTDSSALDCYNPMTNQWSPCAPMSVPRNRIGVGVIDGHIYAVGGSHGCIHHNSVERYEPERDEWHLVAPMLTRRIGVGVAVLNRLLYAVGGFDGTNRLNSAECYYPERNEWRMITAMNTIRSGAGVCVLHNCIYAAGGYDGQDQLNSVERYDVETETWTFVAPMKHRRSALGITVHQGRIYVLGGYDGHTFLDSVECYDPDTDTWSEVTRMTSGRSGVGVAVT
Method: Fluorescence Polarization Assay
(3 nM) and human Keap1 Kelch at 14 nM in the 1×HBSTET assay buffer, as previously.[1, 3-5] In short, the assay was performed in black flat-bottom 384-well plates (Corning Life Sciences, NY) allowing an assay volume of 30 μL/well. Proper mixing and elimination of air bubbles was ascertained by spinning down the plates and incubation for 10–15 minutes at RT before measuring FP levels on a Safire2 plate-reader (Tecan, Männedorf, Switzerland). The Ki values of the compounds were determined by dose-response experiments (12-points, 4% DMSO in all wells), where FP values were fitted to the equation Y = Bottom + (Top - Bottom)/[1 + (10HillSlope*(LogIC50-X))]; X representing the logarithmic value of compound concentration. The resulting IC50 value, together with the Kd value (the dissociation constant between probe and Keap1 Kelch, determined in a prior experiment) and Keap1 Kelch concentrations, was used to calculate the theoretical competitive inhibition constant, the Ki value.[18]

[6] = tested on: Nrf2-regulated genes (AKR1B10, NQO1, TRXR1, HO-1) in HaCaT human keratinocytes; test: HaCaT cell assay, Western Blotting of Nrf2-regulated proteins; format: cell-based; details: 24 h
[7] = tested on: THP1 cells; format: cell-based; details: THP-1 WT, 10 and 100 µM, 48 h
Method: THP1 cells were exposed to the compounds for 48 hours at 10 and 100 μM. Viability was quantified using
propidium iodide exclusion through flow cytometry. PI-positive cells (dead or necrotic cells) were quantified
through red fluorescence on a BD C6 Accuri flow cytometer using a 488 nm excitation wavelength and an
emission filter of 585 nm ± 40 nm (BD Biosciences). 50,000 events were collected (n = 3 technical replicates
per condition). The experiment was repeated twice. Data are presented as mean ± SEM (n = 4‒10).

[8] = tested on: differentiated THP1 macrophages (WT)
[9] = tested on: cGAS-STING pathway in macrophage-derived THP-1 cells; test: cGAS-STING pathway in THP-1 macrophages (WB); format: cell-based; details: 100 µM, 24 h; cGAMP 4 µg/mL 6 h
[10] = tested on: IFN signalling in macrophage-derived THP-1 cells; test: Type I IFN signalling after IFNβ stimulation in THP-1 macrophages (WB); format: cell-based; details: 100 µM, 24 h; IFNβ 500 U/mL 1 h
[11] = LPS or LPS+nigericin stimulation
[12] = WT, 12 h, CDDO-Me 0.1 µM, SFN, DMF, 24, 28 10 µM, KI-696 1 µM
[13] = WT, 12 h, CDDO-Me 0.1 µM, SFN, DMF, 24, 28 10 µM, KI-696 1 µM, NS = not significant

Cc1cc2c(cc1C(CC(=O)O)c1ccc3ccc(OCC(=O)NC4CCCCCC4)cc3c1)OCCO2 (stereo not shown) [Compound 28]
target gene mRNA expression (RT-qPCR) [1]: several‐fold increases in target gene mRNA expression
NLRP3 inflammasome activation: release of cleaved caspase-1 and cleaved IL-1β in supernatants (WB) [2]: markedly decreased NLRP3 inflammasome activation
cleavage of gasdermin D (GSDMD) (WB) [2]: prevented the cleavage of gasdermin D
IL-1β release (ELISA) following NLRP3 activation ([2]; LPS 100 ng/mL 3 h + nigericin 10 µM 1 h): confirmed a decrease
IL-1β release (ELISA) following high concentrations of LPS ([2]; LPS 2 µg/mL 6 h): no statistical difference was observed
expression of NLRP3 (WB) [2, 11]: markedly reduced
total protein levels of pro-IL-1β (WB) [2, 11]: also reduced
EC50 ([3]; Homo sapiens, BEAS-2B): 60.1 ± 5.7 nM
EC50 [3]: 60 nM
number of up- or downregulated genes in Nrf2 KO cells [4]: 266 genes
Ki ([5]; Ki (FP), mean, ≥3 individual measurements, text and figures): 8.8 nM
ligand efficiency (LE) ([5]; from FP Ki): 0.29
protein levels of Nrf2-regulated genes by WB ([6]; HaCaT, 10 µM): strong bands in WB for all tested proteins
relative cell potency among the six compounds (WB) ([6]; HaCaT, 10, 3, 1 µM): most potent
cell viability [7]: did not reduce cell viability
AKR1B10 FC ([8]; Table S3, THP-1, 12 h): 4,27 fold
CASP1 FC ([8]; Table S3, THP-1, 12 h): 0,59 fold
COL1A1 FC ([8]; Table S3, THP-1, 12 h): 1,40 fold
COL4A1 FC ([8]; Table S3, THP-1, 12 h): 1,15 fold
COL4A2 FC ([8]; Table S3, THP-1, 12 h): 1,11 fold
CYP1B1 FC ([8]; Table S3, THP-1, 12 h): 1,04 fold
GPX1 FC ([8]; Table S3, THP-1, 12 h): 0,62 fold
GPX4 FC ([8]; Table S3, THP-1, 12 h): 1,20 fold
IFNAR1 FC ([8]; Table S3, THP-1, 12 h): 0,92 fold
IFNAR2 FC ([8]; Table S3, THP-1, 12 h): 0,99 fold
IFNGR1 FC ([8]; Table S3, THP-1, 12 h): 0,64 fold
IFNGR2 FC ([8]; Table S3, THP-1, 12 h): 0,76 fold
IL1B FC ([8]; Table S3, THP-1, 12 h): 0,88 fold
IRF3 FC ([8]; Table S3, THP-1, 12 h): 1,03 fold
LAMB1 FC ([8]; Table S3, THP-1, 12 h): 4,94 fold
LAMB4 FC ([8]; Table S3, THP-1, 12 h): 3,01 fold
MMP8 FC ([8]; Table S3, THP-1, 12 h): 0,94 fold
MMP9 FC ([8]; Table S3, THP-1, 12 h): 1,03 fold
MMP12 FC ([8]; Table S3, THP-1, 12 h): 0,53 fold
NLRP3 FC ([8]; Table S3, THP-1, 12 h): 0,79 fold
NOD2 FC ([8]; Table S3, THP-1, 12 h): 0,38 fold
NOXA1 FC ([8]; Table S3, THP-1, 12 h): 0,50 fold
SOCS1 FC ([8]; Table S3, THP-1, 12 h): 1,95 fold
SOCS3 FC ([8]; Table S3, THP-1, 12 h): 2,13 fold
SOD1 FC ([8]; Table S3, THP-1, 12 h): 1,35 fold
SOD2 FC ([8]; Table S3, THP-1, 12 h): 0,68 fold
STAT1 FC ([8]; Table S3, THP-1, 12 h): 0,77 fold
TBK1 FC ([8]; Table S3, THP-1, 12 h): 1,01 fold
TLR4 FC ([8]; Table S3, THP-1, 12 h): 1,04 fold
TNFRSF1B FC ([8]; Table S3, THP-1, 12 h): 1,14 fold
TRAP1 FC ([8]; Table S3, THP-1, 12 h): 0,86 fold
cGAS FC ([8]; Table S3, THP-1, 12 h): 1,29 fold
Average FC of upregulated Nrf2-dependent genes [8, 12]: 2.5 fold
number of upregulated genes (FC >2.0, p-adj <0.05) [8, 12]: 175 genes
GCLM fold change vs vehicle [8, 13]: 3.0 fold
GSR fold change vs vehicle [8, 13]: 2.0 fold
HMOX1 fold change vs vehicle [8, 13]: 2.4 fold
SRXN1 fold change vs vehicle [8, 13]: 2.4 fold
TXNRD1 fold change vs vehicle [8, 13]: 2.9 fold
NQO1 upregulation at 24 h ([8]; WT, 24 h, 10 µM (footnote * of Figure 7c)): 1.5 fold
ISG15 levels (WB) [9]: reduced levels
total STING levels and STING activation (phosphorylated STING and TBK1) (WB) [9]: reduced total STING levels and STING activation
IFN signalling (phosphorylated STAT1, IFIT1 protein levels) (WB) [10]: did not affect IFN signalling
